Experimental data published in patent publication US8729014B2, “Specific HCV NS3 protease inhibitors” (RFS Pharma, LLC, priority 2010, dated 2014).

Key:
[1] = Cytotoxicity assay in human PBM cells; format: cell-based; settings: human, human PBM cells
Method: (§1) The toxicity of the compounds was assessed in Vero, human PBM, CEM (human lymphoblastoid), MT-2, and HepG2 cells, as described previously (see Schinazi R. F., Sommadossi J.-P., Saalmann V., Cannon D. L., Xie M.-Y., Hart G. C., Smith G. A. & Hahn E. F. Antimicrob. Agents Chemother. 1990, 34, 1061-67). Cycloheximide was included as positive cytotoxic control, and untreated cells exposed to solvent were included as negative controls. The cytotoxicity IC50 was obtained from the concentration-response curve using the median effective method described previously (see Chou T.-C. & Talalay P. Adv. Enzyme Regul. 1984, 22, 27-55; Belen'kii M. S. & Schinazi R. F. Antiviral Res. 1994, 25,1-11).

human PBM cells = test: Cytotoxicity assay in human PBM cells; format: cell-based; settings: Homo sapiens, PBMC; PBM cells, 100 μM
Method: as §1

C=C[C@@H]1C[C@]1(NC(=O)[C@@H]1C[C@@H](OC(=O)N2Cc3cccc(F)c3C2)CN1C(=O)[C@@H](NC(=O)OC(C)(C)C)C(C)(C)C)C(=O)NS(=O)(=O)C1CC1 [Compound 10] gave an IC50 [1] of over 100 µM and an inhibition at 100 µM (human PBM cells) of 17%.
